Assay results published in patent US9802973B2, “Crystalline forms of ferric maltol” (SHIELD TX (UK) LTD., priority 2014, dated 2017).

Experiments:
[1] = Solubility in pure water of the polymorphs; settings: 23° C.
Procedure: The solubility in pure water of samples of the different polymorphs was assessed at 23° C.

[2] = Competitive slurries of polymorphs (XRPD of product); type: physicochemical
Procedure: Form IV (10 mg) was placed in water (1 ml) with 10 mg of Form I and Form II and stirred overnight at ambient temperature. A second slurry was set up to also include a further polymorph. Mixtures were filtered under suction and dried in a vacuum oven (45° C.).
The same experimental procedure was applied to a slurry involving Forms I, II, III and IV. The initial test was performed in water and a second was carried out in ethyl acetate. […] This work supports previous conclusions that Form II is the dominant form.

Cc1occc(=O)c1[O-].Cc1occc(=O)c1[O-].Cc1occc(=O)c1[O-].[Fe+3] [Form II, ferric maltol]
Solubility [1]: 5900 µg/mL
Form obtained from competitive slurry (XRPD) ([2]; Form IV with Form I and Form II, water, stirred overnight at ambient temperature): generated
Relative stability of forms concluded from competitive slurries ([2]; conclusion from competitive slurries): dominant form
Form obtained from competitive slurry (XRPD) ([2]; slurry of Forms I, II, III and IV, in water and in ethyl acetate): isolated
